Calls of active or inactive are those of the source. The rule behind the calls is not given here.
How the values were obtained:
Cholinesterase = Cholinesterase (Equus caballus, UniProt P81908)
Description: Inhibition of equine serum BuChE using butyrylthiocholine chloride as substrate preincubated for 15 mins followed by substrate addition measured every 1 min by Ellman's method

Acetylcholinesterase [1] = target: T1, Acetylcholinesterase (Electrophorus electricus, UniProt O42275)
Description: Inhibition of electric eel AChE using acetylthiocholine chloride as substrate preincubated for 15 mins followed by substrate addition measured every 1 min by Ellman's method

Acetylcholinesterase [2] = target: Acetylcholinesterase (Homo sapiens, UniProt P22303); experiment: Inhibition of human erythrocyte AChE using acetylthiocholine chloride as substrate preincubated for 15 mins followed by substrate addition measured every 1 min by Ellman's method
in vitro = conditions: PAMPA
Description: Effective permeability of the compound at 5 mg/mL after 10 hrs by PAMPA

[3] = Acute toxicity in po dosed KM mouse measured for 14 days; format: organism-based; conditions: in vivo
Mus musculus [4] = experiment: Acute toxicity in KM mouse assessed as effect on body weight up to 2000 mg/kg, po after 4 hrs; format: organism-based; parameters: dose 2000 mg/kg, route oral; conditions: in vivo
Mus musculus [5] = experiment: Acute toxicity in KM mouse assessed as effect on food consumption up to 2000 mg/kg, po after 4 hrs; format: organism-based; parameters: dose 2000 mg/kg, route oral; conditions: in vivo
Mus musculus [6] = experiment: Acute toxicity in KM mouse assessed as effect on water consumption up to 2000 mg/kg, po after 4 hrs; format: organism-based; parameters: dose 2000 mg/kg, route oral; conditions: in vivo
Mus musculus [7] = experiment: Acute toxicity in KM mouse assessed as mortality up to 2000 mg/kg, po after 24 hrs; format: organism-based; parameters: dose 2000 mg/kg, route oral; conditions: in vivo
Acetylcholinesterase [8] = target: T1, Acetylcholinesterase; experiment: […] inhibition of electric eel AChE using acetylthiocholine chloride as substrate preincubated for 15 mins followed by substrate addition by Lineweaver-Burk plot analysis
[9] = target: Acetylcholinesterase (Electrophorus electricus) (UniProt O42275); experiment: Mixed-type inhibition of electric eel AChE using acetylthiocholine chloride as substrate preincubated for 15 mins followed by substrate addition by Lineweaver-Burk plot analysis
Acetylcholinesterase (Electrophorus electricus), sequence (O42275 24-633 limits assumed): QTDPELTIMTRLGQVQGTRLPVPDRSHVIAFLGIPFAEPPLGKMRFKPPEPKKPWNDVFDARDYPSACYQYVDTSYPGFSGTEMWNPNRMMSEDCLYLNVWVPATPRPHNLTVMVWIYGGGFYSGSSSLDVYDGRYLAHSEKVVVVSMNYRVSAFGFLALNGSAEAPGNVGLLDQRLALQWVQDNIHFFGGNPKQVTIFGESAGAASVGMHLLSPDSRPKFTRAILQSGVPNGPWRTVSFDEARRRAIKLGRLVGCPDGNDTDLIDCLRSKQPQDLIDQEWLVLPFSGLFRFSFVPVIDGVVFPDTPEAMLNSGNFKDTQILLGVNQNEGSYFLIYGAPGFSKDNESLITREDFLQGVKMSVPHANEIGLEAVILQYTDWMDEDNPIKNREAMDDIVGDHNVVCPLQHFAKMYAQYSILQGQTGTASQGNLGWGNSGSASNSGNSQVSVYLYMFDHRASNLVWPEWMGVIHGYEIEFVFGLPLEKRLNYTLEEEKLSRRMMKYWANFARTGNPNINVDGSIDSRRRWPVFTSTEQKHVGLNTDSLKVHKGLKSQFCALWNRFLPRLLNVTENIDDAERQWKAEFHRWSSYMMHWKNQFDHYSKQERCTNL

Acetylcholinesterase (Homo sapiens, UniProt P22303), sequence (P22303 whole entry): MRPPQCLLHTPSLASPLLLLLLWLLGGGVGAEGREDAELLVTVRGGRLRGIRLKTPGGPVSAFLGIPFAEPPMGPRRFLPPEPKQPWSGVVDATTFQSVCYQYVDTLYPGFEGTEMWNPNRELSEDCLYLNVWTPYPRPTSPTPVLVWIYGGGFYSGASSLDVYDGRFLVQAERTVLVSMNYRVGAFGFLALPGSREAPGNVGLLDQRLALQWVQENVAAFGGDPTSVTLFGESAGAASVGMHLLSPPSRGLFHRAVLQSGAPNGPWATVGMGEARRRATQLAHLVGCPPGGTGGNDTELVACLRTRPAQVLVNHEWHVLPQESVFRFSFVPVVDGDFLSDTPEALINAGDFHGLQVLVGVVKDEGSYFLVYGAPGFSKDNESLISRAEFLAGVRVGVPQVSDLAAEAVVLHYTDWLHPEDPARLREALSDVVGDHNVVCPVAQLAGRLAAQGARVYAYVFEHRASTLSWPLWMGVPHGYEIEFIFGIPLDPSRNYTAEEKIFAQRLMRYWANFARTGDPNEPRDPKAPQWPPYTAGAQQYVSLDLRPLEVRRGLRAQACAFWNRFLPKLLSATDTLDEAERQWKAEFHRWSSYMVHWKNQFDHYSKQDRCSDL
T1 sequence (O42275 whole entry): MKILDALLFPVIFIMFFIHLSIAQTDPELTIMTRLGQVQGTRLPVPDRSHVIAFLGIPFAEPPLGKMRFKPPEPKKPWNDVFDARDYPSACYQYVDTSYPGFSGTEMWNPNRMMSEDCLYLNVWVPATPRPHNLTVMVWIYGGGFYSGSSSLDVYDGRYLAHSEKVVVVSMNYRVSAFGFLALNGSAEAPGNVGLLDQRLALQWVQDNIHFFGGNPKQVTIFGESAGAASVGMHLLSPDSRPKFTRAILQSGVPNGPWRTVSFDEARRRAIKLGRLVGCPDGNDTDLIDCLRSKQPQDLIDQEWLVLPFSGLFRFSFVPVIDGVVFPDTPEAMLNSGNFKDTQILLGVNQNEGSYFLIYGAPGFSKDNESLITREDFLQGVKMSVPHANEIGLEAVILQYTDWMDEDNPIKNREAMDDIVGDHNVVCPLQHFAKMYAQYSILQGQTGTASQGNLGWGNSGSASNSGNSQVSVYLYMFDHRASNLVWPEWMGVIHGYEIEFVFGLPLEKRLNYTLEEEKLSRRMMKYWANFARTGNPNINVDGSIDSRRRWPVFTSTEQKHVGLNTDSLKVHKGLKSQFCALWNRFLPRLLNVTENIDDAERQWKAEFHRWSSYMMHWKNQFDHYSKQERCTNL
Cholinesterase, sequence (P81908 whole entry): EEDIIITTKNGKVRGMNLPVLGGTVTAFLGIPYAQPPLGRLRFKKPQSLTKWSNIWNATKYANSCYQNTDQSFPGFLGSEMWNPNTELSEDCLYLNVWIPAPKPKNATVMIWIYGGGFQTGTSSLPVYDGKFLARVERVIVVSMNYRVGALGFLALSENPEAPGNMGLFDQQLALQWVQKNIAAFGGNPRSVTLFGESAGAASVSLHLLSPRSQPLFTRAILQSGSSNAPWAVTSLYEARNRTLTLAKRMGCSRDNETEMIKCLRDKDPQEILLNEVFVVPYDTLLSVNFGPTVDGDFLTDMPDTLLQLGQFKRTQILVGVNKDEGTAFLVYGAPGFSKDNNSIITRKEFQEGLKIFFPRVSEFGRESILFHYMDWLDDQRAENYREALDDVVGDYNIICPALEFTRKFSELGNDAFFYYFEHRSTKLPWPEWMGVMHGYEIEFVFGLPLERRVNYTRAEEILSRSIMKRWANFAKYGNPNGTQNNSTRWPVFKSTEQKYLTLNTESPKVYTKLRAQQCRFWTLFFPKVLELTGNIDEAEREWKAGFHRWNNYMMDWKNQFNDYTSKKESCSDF

Structure (SMILES) | IC50 (Cholinesterase) [µM] | IC50 (Acetylcholinesterase [1]) [µM] | further results
O=c1c2ccccc2[se]n1C1CCN(Cc2ccccc2)CC1 | 8.32 | 17.6 | 
O=c1c2ccc(Cl)cc2[se]n1C1CCN(Cc2ccccc2)CC1 | 21.5 | 10.1 | 
O=c1c2ccc(Cl)cc2[se]n1CCC1CCN(Cc2ccccc2)CC1 | 2.35 | 0.206 | 
O=c1c2ccc(F)cc2[se]n1C1CCN(Cc2ccccc2)CC1 | 10.6 | 19.7 | 
COc1cc2c(cc1OC)[Se](=O)N(CCC1CCN(Cc3ccccc3)CC1)C2=O (stereo unspecified) | 1.36 | 0.043 | IC50 (Acetylcholinesterase [2]): 0.163 µM
COc1cc2[se]n(CCCCC3CCN(Cc4ccccc4)CC3)c(=O)c2cc1OC | 0.517 | 0.038 | IC50 (Acetylcholinesterase [2]): 0.103 µM; Papp at 10 h, 5 mg/mL (in vitro): 15.8 ×10⁻⁶ cm/s
O=c1c2ccccc2[se]n1CCC1CCN(Cc2ccccc2)CC1 | 2.13 | 0.382 | 
O=c1c2ccc(Cl)cc2[se]n1CC1CCN(Cc2ccccc2)CC1 | 2.3 | 6.16 | 
O=c1c2ccc(F)cc2[se]n1CCC1CCN(Cc2ccccc2)CC1 | 3.67 | 0.224 | 
COc1cc2[se]n(C3CCN(Cc4ccccc4)CC3)c(=O)c2cc1OC | 9.46 | 11.8 | 
COc1cc2[se]n(CC3CCN(Cc4ccccc4)CC3)c(=O)c2cc1OC | 3.92 | 4.23 | 
COc1cc2[se]n(CCC3CCN(Cc4ccccc4)CC3)c(=O)c2cc1OC | 1.59 | 0.042 | MTD at 336 h [3]: 2000 mg/kg; Activity (Mus musculus [4]): Non-toxic; Activity (Mus musculus [5]): Non-toxic; Activity (Mus musculus [6]): Non-toxic; Activity (Mus musculus [7]): Non-toxic; Ki (Acetylcholinesterase [8]): 0.017 µM; inhibition [9]: Active; IC50 (Acetylcholinesterase [2]): 0.097 µM; Papp at 10 h, 5 mg/mL (in vitro): 8.6 ×10⁻⁶ cm/s
COc1cc2[se]n(CCCC3CCN(Cc4ccccc4)CC3)c(=O)c2cc1OC | 1.5 | 0.072 | IC50 (Acetylcholinesterase [2]): 0.231 µM; Papp at 10 h, 5 mg/mL (in vitro): 10.3 ×10⁻⁶ cm/s
O=c1c2ccccc2[se]n1CC1CCN(Cc2ccccc2)CC1 | 3.63 | 19.8 | 
O=c1c2ccc(F)cc2[se]n1CC1CCN(Cc2ccccc2)CC1 | 3.46 | 12.3 | 
O=c1c2ccccc2[se]n1-c1ccccc1 [EBSELEN] | 10.4 | 41 | 

— ChEMBL document CHEMBL3085626, “Synthesis and evaluation of multi-target-directed ligands against Alzheimer's disease based on the fusion of donepezil and ebselen” (J Med Chem, 2013)
